{"source": "ChEMBL document CHEMBL4177594", "about": "“Design, synthesis, and evaluation of salicyladimine derivatives as multitarget-directed ligands against Alzheimer's disease” (Bioorg Med Chem, 2017)", "key": {"PC-12 [1]": {"test_system": "PC-12", "assay": "Neuroprotective activity against H2O2-induced apoptosis in rat PC12 cells assessed as apoptotic cells at 25 uM after 24 hrs by Annexin V/FITC/propidium iodide staining-based flow cytometry (reference value: 52.3%)", "assay_type": "functional"}, "PC-12 [2]": {"test_system": "PC-12", "assay": "Neuroprotective activity against H2O2-induced apoptosis in rat PC12 cells assessed as late apoptosis cells level at 6.25 uM after 24 hrs by Annexin V/FITC/propidium iodide staining-based flow cytometry (reference value: 1.9%)", "assay_type": "functional"}, "PC-12 [3]": {"test_system": "PC-12", "assay": "Neuroprotective activity against H2O2-induced apoptosis in rat PC12 cells assessed as apoptotic cells at 6.25 uM after 24 hrs by Annexin V/FITC/propidium iodide staining-based flow cytometry (reference value: 52.3%)", "assay_type": "functional"}, "PC-12 [4]": {"test_system": "PC-12", "assay": "Neuroprotective activity against H2O2-induced apoptosis in rat PC12 cells assessed as early apoptosis cells level at 25 uM after 24 hrs by Annexin V/FITC/propidium iodide staining-based flow cytometry (reference value: 1.8%)", "assay_type": "functional"}, "[5]": {"assay": "Antioxidant activity assessed as DPPH radical scavenging activity after 30 mins", "assay_type": "functional"}, "PC-12 [6]": {"test_system": "PC-12", "assay": "Neuroprotective activity against 6-OHDA-induced toxicity in rat PC12 cells assessed as increase in cell viability at 10 to 25 uM pretreated for 24 hrs followed by 6-OHDA challenge measured after 24 hrs by MTT assay", "assay_type": "functional"}, "PC-12 [7]": {"test_system": "PC-12", "assay": "Neuroprotective activity against H2O2-induced apoptosis in rat PC12 cells assessed as necrosis cells level at 12.5 uM after 24 hrs by Annexin V/FITC/propidium iodide staining-based flow cytometry (reference value: 0.1%)", "assay_type": "functional"}, "PC-12 [8]": {"test_system": "PC-12", "assay": "Neuroprotective activity against H2O2-induced apoptosis in rat PC12 cells assessed as late apoptosis cells level at 12.5 uM after 24 hrs by Annexin V/FITC/propidium iodide staining-based flow cytometry (reference value: 1.9%)", "assay_type": "functional"}, "in vitro": {"assay": "in vitro", "parameters": "dose or concentration left out as unconfirmed", "conditions": "PAMPA", "description": "Permeability of the compound at 100 mg/ml after 16 hrs by BBB-PAMPA method"}, "PC-12 [9]": {"test_system": "PC-12", "assay": "Neuroprotective activity against H2O2-induced cytotoxicity in rat PC12 cells assessed as increase in cell viability at 6.25 to 25 uM preincubated for 24 hrs followed by H2O2 addition and measured after 24 hrs by MTT assay", "assay_type": "functional, cell-based"}, "BV-2": {"test_system": "BV-2", "assay": "Neuroprotective activity against LPS-induced inflammation in mouse BV2 cells assessed as inhibition of LPS-induced NO production at 10 to 25 uM after 24 hrs in presence of LPS by Griess reaction based assay relative to resveratrol", "assay_type": "functional, cell-based"}, "[10]": {"biological_target": "Amyloid-beta precursor protein (Homo sapiens) (UniProt P05067)", "sequence (P05067 whole entry, the tested form may be a part)": "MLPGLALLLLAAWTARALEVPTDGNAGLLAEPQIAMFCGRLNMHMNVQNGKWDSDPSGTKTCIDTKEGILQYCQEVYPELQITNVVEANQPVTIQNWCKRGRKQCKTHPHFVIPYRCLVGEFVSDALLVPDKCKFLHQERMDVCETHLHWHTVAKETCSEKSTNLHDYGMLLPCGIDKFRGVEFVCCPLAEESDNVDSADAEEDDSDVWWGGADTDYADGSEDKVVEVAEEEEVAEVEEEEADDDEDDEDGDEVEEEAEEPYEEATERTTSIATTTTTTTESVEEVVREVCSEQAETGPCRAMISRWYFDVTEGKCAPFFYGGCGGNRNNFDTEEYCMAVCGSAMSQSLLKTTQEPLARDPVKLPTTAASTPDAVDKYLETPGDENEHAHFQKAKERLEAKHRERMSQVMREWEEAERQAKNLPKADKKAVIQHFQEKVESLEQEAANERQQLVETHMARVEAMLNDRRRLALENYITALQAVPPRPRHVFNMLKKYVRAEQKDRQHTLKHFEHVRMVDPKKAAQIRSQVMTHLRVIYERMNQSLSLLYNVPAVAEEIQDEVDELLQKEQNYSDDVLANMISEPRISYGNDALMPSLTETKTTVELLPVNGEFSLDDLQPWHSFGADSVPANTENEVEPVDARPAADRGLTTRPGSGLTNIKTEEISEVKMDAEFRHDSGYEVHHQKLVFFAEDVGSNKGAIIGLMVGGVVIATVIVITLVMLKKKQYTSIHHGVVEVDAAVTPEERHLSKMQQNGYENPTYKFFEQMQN", "assay": "Inhibition of self-induced aggregation of amyloid beta (1 to 42 residues) (unknown origin) at 25 uM incubated for 48 hrs by Thioflavin T fluorescence assay relative to control"}, "PC-12 [11]": {"test_system": "PC-12", "assay": "Neuroprotective activity against H2O2-induced apoptosis in rat PC12 cells assessed as late apoptosis cells level at 25 uM after 24 hrs by Annexin V/FITC/propidium iodide staining-based flow cytometry (reference value: 1.9%)", "assay_type": "functional"}, "PC-12 [12]": {"test_system": "PC-12", "assay": "Cytotoxicity against rat PC12 cells at 25 uM after 24 hrs by MTT assay", "assay_type": "cell-based", "conditions": "pc-12, 24 h"}, "PC-12 [13]": {"test_system": "PC-12", "assay": "Antioxidant activity against H2O2-induced oxidative stress in rat PC12 cells assessed as reduction in intracellular ROS levels after 48 hrs by DCFH-DA staining based flow cytometry", "assay_type": "functional, cell-based"}, "PC-12 [14]": {"test_system": "PC-12", "assay": "Neuroprotective activity against H2O2-induced apoptosis in rat PC12 cells assessed as early apoptosis cells level at 50 uM after 24 hrs by Annexin V/FITC/propidium iodide staining-based flow cytometry (reference value: 1.8%)", "assay_type": "functional"}, "PC-12 [15]": {"test_system": "PC-12", "assay": "Neuroprotective activity against H2O2-induced apoptosis in rat PC12 cells assessed as early apoptosis cells level at 6.25 uM after 24 hrs by Annexin V/FITC/propidium iodide staining-based flow cytometry (reference value: 1.8%)", "assay_type": "functional"}, "[16]": {"assay": "Metal chelating activity assessed as compound-Fe3+ complex formation after 30 mins by UV-Vis spectrophotometry based Job's plot"}, "PC-12 [17]": {"test_system": "PC-12", "assay": "Neuroprotective activity against H2O2-induced apoptosis in rat PC12 cells assessed as late apoptosis cells level at 50 uM after 24 hrs by Annexin V/FITC/propidium iodide staining-based flow cytometry (reference value: 1.9%)", "assay_type": "functional"}, "PC-12 [18]": {"test_system": "PC-12", "assay": "Neuroprotective activity against H2O2-induced apoptosis in rat PC12 cells assessed as necrosis cells level at 50 uM after 24 hrs by Annexin V/FITC/propidium iodide staining-based flow cytometry (reference value: 0.1%)", "assay_type": "functional"}, "PC-12 [19]": {"test_system": "PC-12", "assay": "Neuroprotective activity against H2O2-induced apoptosis in rat PC12 cells assessed as necrosis cells level at 25 uM after 24 hrs by Annexin V/FITC/propidium iodide staining-based flow cytometry (reference value: 0.1%)", "assay_type": "functional"}, "[20]": {"biological_target": "T1, Amine oxidase [flavin-containing] B (Homo sapiens, UniProt P27338)", "T1 sequence (P27338 whole entry)": "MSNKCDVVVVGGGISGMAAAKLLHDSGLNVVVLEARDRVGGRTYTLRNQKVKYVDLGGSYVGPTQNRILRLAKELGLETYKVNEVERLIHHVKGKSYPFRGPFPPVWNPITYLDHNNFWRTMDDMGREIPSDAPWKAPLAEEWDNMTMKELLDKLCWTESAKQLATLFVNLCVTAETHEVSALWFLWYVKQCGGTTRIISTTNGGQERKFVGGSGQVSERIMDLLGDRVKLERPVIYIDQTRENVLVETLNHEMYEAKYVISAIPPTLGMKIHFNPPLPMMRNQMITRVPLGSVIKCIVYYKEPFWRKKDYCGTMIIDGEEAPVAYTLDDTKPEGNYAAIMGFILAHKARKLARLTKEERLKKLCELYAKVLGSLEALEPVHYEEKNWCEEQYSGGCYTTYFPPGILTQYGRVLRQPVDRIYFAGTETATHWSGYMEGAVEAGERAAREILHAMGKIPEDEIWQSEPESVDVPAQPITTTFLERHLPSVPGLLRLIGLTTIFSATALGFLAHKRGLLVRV", "assay": "Inhibition of human MAO-B using p-tyramine as substrate preincubated for 15 mins followed by substrate addition measured after 20 mins by fluorescence-based Amplex Red MAO assay"}, "[21]": {"assay": "Metal chelating activity assessed as compound-Fe2+ complex formation after 30 mins by UV-Vis spectrophotometry based Job's plot"}, "PC-12 [22]": {"test_system": "PC-12", "assay": "Neuroprotective activity against H2O2-induced apoptosis in rat PC12 cells assessed as necrosis cells level at 6.25 uM after 24 hrs by Annexin V/FITC/propidium iodide staining-based flow cytometry (reference value: 0.1%)", "assay_type": "functional"}, "PC-12 [23]": {"test_system": "PC-12", "assay": "Neuroprotective activity against H2O2-induced apoptosis in rat PC12 cells assessed as viable cells level at 6.25 uM after 24 hrs by Annexin V/FITC/propidium iodide staining-based flow cytometry (reference value: 96.2%)", "assay_type": "functional"}, "PC-12 [24]": {"test_system": "PC-12", "assay": "Neuroprotective activity against H2O2-induced apoptosis in rat PC12 cells assessed as apoptotic cells at 50 uM after 24 hrs by Annexin V/FITC/propidium iodide staining-based flow cytometry (reference value: 52.3%)", "assay_type": "functional"}, "[25]": {"assay": "Antioxidant activity assessed as ABTS radical scavenging activity at 25 uM after 6 mins", "assay_type": "functional"}, "PC-12 [26]": {"test_system": "PC-12", "assay": "Neuroprotective activity against H2O2-induced apoptosis in rat PC12 cells assessed as apoptotic cells at 12.5 uM after 24 hrs by Annexin V/FITC/propidium iodide staining-based flow cytometry (reference value: 52.3%)", "assay_type": "functional"}, "[27]": {"assay": "Metal chelating activity assessed as compound-Cu2+ complex formation after 30 mins by UV-Vis spectrophotometry based Job's plot"}}, "note": "The source made the active and inactive calls. The calls are words filed in the database; no cut-off is given here.", "data": [{"smiles": "Oc1ccc(/C=N/c2ccc(OCc3ccccc3)cc2)c(O)c1O", "values": [{"measurement": "Activity", "setting": "PC-12 [1]", "value": 11.2, "unit": "%"}, {"measurement": "Activity", "setting": "PC-12 [2]", "value": 11.9, "unit": "%"}, {"measurement": "Activity", "setting": "PC-12 [3]", "value": 38.6, "unit": "%"}, {"measurement": "Activity", "setting": "PC-12 [4]", "value": 8.5, "unit": "%"}, {"measurement": "IC50", "setting": "[5]", "value": 43.4, "unit": "µM"}, {"measurement": "Activity", "setting": "PC-12 [6]", "value": "65.9 - 75.4%"}, {"measurement": "Activity", "setting": "PC-12 [7]", "value": 0.4, "unit": "%"}, {"measurement": "Activity", "setting": "PC-12 [8]", "value": 4.2, "unit": "%"}, {"measurement": "Papp at 16 h", "setting": "in vitro", "value": 5.75, "unit": "×10⁻⁶ cm/s"}, {"measurement": "Activity", "setting": "PC-12 [9]", "value": "Active"}, {"measurement": "Activity", "setting": "BV-2", "value": "Active"}, {"measurement": "inhibition", "setting": "[10]", "value": 91.3, "unit": "%"}, {"measurement": "Activity", "setting": "PC-12 [11]", "value": 2.7, "unit": "%"}, {"measurement": "Activity", "setting": "PC-12 [12]", "value": "Non-Toxic"}, {"measurement": "Activity", "setting": "PC-12 [13]", "value": "Dose-dependent effect"}, {"measurement": "Activity", "setting": "PC-12 [14]", "value": 3.7, "unit": "%"}, {"measurement": "Activity", "setting": "PC-12 [15]", "value": 26.7, "unit": "%"}, {"measurement": "log K", "setting": "[16]", "value": 6.19}, {"measurement": "Activity", "setting": "PC-12 [17]", "value": 2.3, "unit": "%"}, {"measurement": "Activity", "setting": "PC-12 [18]", "value": 3, "unit": "%"}, {"measurement": "Activity", "setting": "PC-12 [19]", "value": 1.1, "unit": "%"}, {"measurement": "IC50", "setting": "[20]", "value": 1.73, "unit": "µM"}, {"measurement": "log K", "setting": "[21]", "value": 6.3}, {"measurement": "Activity", "setting": "PC-12 [22]", "value": 0.8, "unit": "%"}, {"measurement": "Activity", "setting": "PC-12 [23]", "value": 60.6, "unit": "%"}, {"measurement": "Activity", "setting": "PC-12 [24]", "value": 6.1, "unit": "%"}, {"measurement": "Activity (umolequiv/umol)", "setting": "[25]", "value": 0.67}, {"measurement": "Activity", "setting": "PC-12 [26]", "value": 29.9, "unit": "%"}, {"measurement": "log K", "setting": "[27]", "value": 8.01}]}]}
